# From patent US7566718B2, “Amine-linked pyridyl and phenyl substituted piperazine-piperidines with CXCR3 antagonist activity” (Schering Corporation, priority 2005, dated 2009)
# Like-named read-outs stand apart in the source and are kept apart here.
# Target: T1, human CXCR3 (N-delta 4) (Homo sapiens, UniProt P49682)
# T1 construct: CD8 leader (N); Flag tag; expressed in transfected cells; membrane preparation
# T1 sequence (P49682 5-368 limits assumed): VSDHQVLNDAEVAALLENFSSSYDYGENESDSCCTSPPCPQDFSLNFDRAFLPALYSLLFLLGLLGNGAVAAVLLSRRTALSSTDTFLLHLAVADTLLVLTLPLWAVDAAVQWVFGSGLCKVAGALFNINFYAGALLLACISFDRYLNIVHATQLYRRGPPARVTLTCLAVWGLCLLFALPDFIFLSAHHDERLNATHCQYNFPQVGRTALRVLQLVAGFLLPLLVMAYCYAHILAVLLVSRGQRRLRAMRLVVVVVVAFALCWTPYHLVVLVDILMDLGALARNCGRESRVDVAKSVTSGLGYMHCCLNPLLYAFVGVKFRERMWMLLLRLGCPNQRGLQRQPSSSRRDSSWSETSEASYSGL
# Assay: Human CXCR3 (N-delta 4) scintillation proximity assay (SPA), [125I] IP-10 binding to Ba/F3-hCXCR3 membranes
# Description: The inventive compounds can readily be evaluated to determine activity at the CXCR3 receptors by known methods, such as, for example, development of a human CXCR3 (N-delta 4) Binding Assay.
# The DNA encoding human CXCR3 was cloned by PCR using human genomic DNA (Promega, Madison, Wis.) as a template. The PCR primers were designed based on the published sequence of human orphan receptor GPR9 (1) with incorporated restriction sites, a Kozak consensus sequence, CD8 leader and Flag tag. The PCR product was subcloned into the mammalian expression vector pME18Sneo, a derivative of the SR-alpha expression vector (designated as pME18Sneo-hCXCR3 (N-delta 4).
# IL-3-dependent mouse pro-B cells Ba/F3 were transfected by electroporation in 0.4 ml Dulbecco's PBS containing 4×10^6 cells with 20 μg of pME18Sneo-hCXCR3 (N-delta 4) plasmid DNA. Cells were pulsed at 400 Volts, 100 OHMs, 960 μFd. The transfected cells were under selection with 1 mg/ml G418 (Life Technologies, Gaithersburg, Md.). G418-resistant Ba/F3 clones were screened for CXCR3 expression by specific binding of [^125I] IP-10 (NEN Life Science Products, Boston, Mass.).
# Ba/F3 cells expressing human CXCR3 (N-delta 4) were pelleted and resuspended in the lysis buffer containing 10 mM HEPES, pH 7.5 and Complete® protease inhibitors (1 tablet per 100 ml) (Boehringer Mannheim, Indianapolis, Ind.) at a cell density of 20×10^6 cells per ml. After 5 minute incubation on ice, cells were transferred to 4639 cell disruption bomb (Parr Instrument, Moline, Ill.) and applied with 1,500 psi of nitrogen for 30 minutes on ice. Large cellular debris was removed by centrifugation at 1,000×g. Cell membrane in the supernatant was sedimented at 100,000×g. The membrane was resuspended in the lysis buffer supplemented with 10% sucrose and stored at −80° C. Total protein concentration of the membrane was determined by BCA method from Pierce (Rockford, Ill.).
# Human CXCR3 (N-Delta 4) Scintillation Proximity Assay (SPA):
# For each assay point, 2 μg of membrane was preincubated for 1 hr with 300 μg wheat germ agglutinin (WGA) coated SPA beads (Amersham, Arlington Heights, Ill.) in the binding buffer (50 mM HEPES, 1 mM CaCl2, 5 mM MgCl2, 125 mM NaCl, 0.002% NaN3, 1.0% BSA) at room temperature. The beads were spun down, washed once, resuspended in the binding buffer and transferred to a 96-well Isoplate (Wallac, Gaithersburg, Md.). 25 pM of [^125I] IP-10 with tested compounds in a series of titration were added to start the reaction. After 3 hr reaction at room temperature, the amount of [^125I] IP-10 bound to the SPA beads was determined with a Wallac 1450 Microbeta counter.
# [1] = IC50 rating, [125I] IP-10 displacement, human CXCR3, read-out: IC50
Compound,IC50 [1],"IC50 (value given in the text as example, read-out: IC50 value)"
CC[C@H]1CN(c2ncc(NS(C)(=O)=O)cc2Cl)CCN1C1CCN(Cc2ccc(Cl)cc2OC)CC1 [Compound 1],< 0.025 µM,0.0008 µM
CC[C@H]1CN(c2ncc(NS(N)(=O)=O)cc2Cl)CCN1C1CCN(Cc2ccc(Cl)cc2F)CC1 [Compound 2],< 0.025 µM,
CC[C@H]1CN(c2ncc(NS(N)(=O)=O)cc2Cl)CCN1C1CCN(C(CO)c2ccc(Cl)cc2)CC1 (some centres unmarked) [Compound 3],< 0.025 µM,
CC[C@H]1CN(c2ncc(NS(C)(=O)=O)cc2Cl)CCN1C1CCN([C@H](CO)c2ccc(Cl)cc2)CC1 [Compound 4],< 0.025 µM,
CC[C@H]1CN(c2ncc(NS(C)(=O)=O)cc2Cl)CCN1C1CCN(Cc2ccc(Br)cc2)CC1 [Compound 5],< 0.025 µM,
CC[C@H]1CN(c2ncc(NS(C)(=O)=O)cc2Cl)CCN1C1CCN(Cc2ccc(Cl)cc2)CC1 [Compound 6],< 0.025 µM,
CC[C@H]1CN(c2ncc(NS(C)(=O)=O)cc2Cl)CCN1C1CCN(Cc2ccc(Cl)cc2F)CC1 [Compound 7],< 0.025 µM,
CC[C@H]1CN(c2ncc(NS(C)(=O)=O)cc2Cl)CCN1C1CCN(Cc2ccc(Br)cc2F)CC1 [Compound 8],< 0.025 µM,
CC[C@H]1CN(c2ncc(NS(C)(=O)=O)cc2Cl)CCN1C1CCN(Cc2ccc(Cl)cc2N)CC1 [Compound 9],< 0.025 µM,
CC[C@H]1CN(c2ncc(NS(C)(=O)=O)cc2Cl)CCN1C1CCN(Cc2ccc(OC(F)(F)F)cc2)CC1 [Compound 10],< 0.025 µM,
CC[C@H]1CN(c2ncc(NS(C)(=O)=O)cc2Cl)CCN1C1CCN(C(CO)c2ccc(Cl)cc2)CC1 (some centres unmarked) [Compound 11],< 0.025 µM,
CC[C@H]1CN(c2ncc(NS(C)(=O)=O)cc2Cl)CCN1C1CCN(C(C(N)=O)c2ccc(Cl)cc2)CC1 (some centres unmarked) [Compound 12],< 0.025 µM,
CC[C@H]1CN(c2ncc(NS(C)(=O)=O)cc2Cl)CCN1C1CCN(Cc2ccc(OC(F)F)cc2)CC1 [Compound 13],< 0.025 µM,
CC[C@H]1CN(c2ncc(NS(C)(=O)=O)cc2Cl)CCN1C1CCN(Cc2ccc(Cl)cc2NC)CC1 [Compound 14],< 0.025 µM,
CC[C@H]1CN(c2ncc(NS(=O)(=O)CC)cc2Cl)CCN1C1CCN(C(N)c2ccc(Cl)cc2F)CC1 (some centres unmarked) [Compound 15],< 0.025 µM,
CC[C@H]1CN(c2ncc(NS(N)(=O)=O)cc2Cl)CCN1C1CCN([C@H](C(=O)OC)c2ccc(Cl)cc2)CC1 [Compound 16],< 0.025 µM,
CC[C@H]1CN(c2ncc(NS(=O)(=O)N(C)C)cc2Cl)CCN1C1CCN(Cc2ccc(Cl)cc2F)CC1 [Compound 17],< 0.025 µM,
CC[C@H]1CN(c2ncc(NS(C)(=O)=O)cc2Cl)CCN1C1CCN(Cc2ccc(OC)cc2OC)CC1 [Compound 18],< 0.025 µM,
CC[C@H]1CN(c2ncc(NS(C)(=O)=O)cc2Cl)CCN1C1CCN(Cc2ccc(C)cc2)CC1 [Compound 19],< 0.025 µM,
CC[C@H]1CN(c2ncc(NS(C)(=O)=O)cc2Cl)CCN1C1CCN(Cc2ccc(C)cc2C)CC1 [Compound 20],< 0.025 µM,
CC[C@H]1CN(c2ncc(NS(C)(=O)=O)cc2Cl)CCN1C1CCN(Cc2ccc(F)c(F)c2)CC1 [Compound 21],< 0.025 µM,
CC[C@H]1CN(c2ncc(NS(=O)(=O)C3CC3)cc2Cl)CCN1C1CCN(Cc2ccc(Cl)cc2F)CC1 [Compound 22],< 0.025 µM,
CC[C@H]1CN(c2ncc(NS(C)(=O)=O)cc2Cl)CCN1C1CCN(Cc2ccc(Cl)cc2C#N)CC1 [Compound 23],< 0.025 µM,
CC[C@H]1CN(c2ncc(NS(C)(=O)=O)cc2Cl)CCN1C1CCN(C(=O)c2ccc(Cl)cc2N)CC1 [Compound 24],0.025 to 0.1 µM,
CC[C@H]1CN(c2ncc(NS(C)(=O)=O)cc2Cl)CCN1C1CCN(Cc2ccc(F)cc2)CC1 [Compound 25],0.025 to 0.1 µM,
CC[C@H]1CN(c2ncc(NS(C)(=O)=O)cc2Cl)CCN1C1CCN(Cc2ccc(Cl)s2)CC1 [Compound 26],0.025 to 0.1 µM,

Compound,IC50 [1],"IC50 (value given in the text as example, read-out: IC50 value)"
CC[C@H]1CN(c2ncc(NS(C)(=O)=O)cc2Cl)CCN1C1CCN(C(C(=O)OC)c2ccc(Cl)cc2)CC1 (some centres unmarked) [Compound 27],0.025 to 0.1 µM,
CC[C@H]1CN(c2ncc(NS(C)(=O)=O)cc2Cl)CCN1C1CCN(Cc2ccc(Cl)cc2[N+](=O)[O-])CC1 [Compound 28],0.025 to 0.1 µM,
CC[C@H]1CN(c2ncc(NS(=O)(=O)C(C)C)cc2Cl)CCN1C1CCN(Cc2ccc(Cl)cc2F)CC1 [Compound 29],0.025 to 0.1 µM,
CC[C@H]1CN(c2ncc(NS(C)(=O)=O)cc2Cl)CCN1C1CCN(Cc2ccc(Cl)cc2C(=O)OC)CC1 [Compound 30],0.025 to 0.1 µM,
CC[C@H]1CN(c2ncc(NS(C)(=O)=O)cc2Cl)CCN1C1CCN(C(=O)c2ccc(Cl)nc2N)CC1 [Compound 31],0.025 to 0.1 µM,
C[C@H]1CN(c2ncc(NS(C)(=O)=O)cc2Cl)CCN1C1CCN(Cc2ccc(Cl)cc2)CC1 [Compound 32],0.025 to 0.1 µM,
CC[C@H]1CN(c2ncc(NS(N)(=O)=O)cc2Cl)CCN1C1CCN(C(=O)c2ccc(Cl)cc2)CC1 [Compound 33],0.025 to 0.1 µM,
CC[C@H]1CN(c2ncc(NS(C)(=O)=O)cc2Cl)CCN1C1CCN(Cc2ccc(Cl)cc2O)CC1 [Compound 34],0.025 to 0.1 µM,
CC[C@H]1CN(c2ncc(NS(N)(=O)=O)cc2Cl)CCN1C1CCN([C@H](C(N)=O)c2ccc(Cl)cc2)CC1 [Compound 35],0.025 to 0.1 µM,
CC[C@H]1CN(c2ncc(NS(C)(=O)=O)cc2Cl)CCN1C1CCN(Cc2ccc(Cl)cc2-c2nnn[nH]2)CC1 [Compound 36],0.025 to 0.1 µM,
C[C@H]1CN(c2ncc(NS(C)(=O)=O)cc2Cl)CCN1C1CCN(Cc2ccc(OC(F)(F)F)cc2)CC1 [Compound 38],0.025 to 0.1 µM,
CC[C@H]1CN(c2ncc(NS(C)(=O)=O)cc2Cl)CCN1C1CCN(C(C(=O)OC)c2ccc(Cl)cc2)CC1 (some centres unmarked) [Compound 39],0.025 to 0.1 µM,
CCC(=O)[C@@H](c1ccc(Cl)cc1)N1CCC(N2CCN(c3ncc(NS(N)(=O)=O)cc3Cl)C[C@@H]2CC)CC1 [Compound 41],> 0.1 µM,
CC[C@H]1CN(c2ncc(NS(C)(=O)=O)cc2Cl)CCN1C1CCN(Cc2ccc(C(=O)OC)cn2)CC1 [Compound 42],> 0.1 µM,
CC[C@H]1CN(c2ncc(NS(C)(=O)=O)cc2Cl)CCN1C1CCN(Cc2cc(C)c(C)s2)CC1 [Compound 43],> 0.1 µM,
CC[C@H]1CN(c2ncc(NS(C)(=O)=O)cc2Cl)CCN1C1CCN(Cc2cc(Br)cs2)CC1 [Compound 44],> 0.1 µM,
CC[C@H]1CN(c2ncc(NS(C)(=O)=O)cc2Cl)CCN1C1CCN(Cc2ccc(N(C)C)cc2)CC1 [Compound 45],> 0.1 µM,
CC[C@H]1CN(c2ncc(NS(=O)(=O)c3ccc(Cl)cc3)cc2Cl)CCN1C1CCN(Cc2ccc(Cl)cc2F)CC1 [Compound 46],> 0.1 µM,
CC[C@H]1CN(c2ncc(NS(C)(=O)=O)cc2Cl)CCN1C1CCN(Cc2c(F)cc(F)cc2F)CC1 [Compound 47],> 0.1 µM,
CC[C@H]1CN(c2ncc(NS(C)(=O)=O)cc2Cl)CCN1C1CCN(Cc2cc3ccccc3o2)CC1 [Compound 48],> 0.1 µM,
Cc1ccc(CN2CCC(N3CCN(c4ncc(NS(C)(=O)=O)cc4Cl)C[C@@H]3C)CC2)c(C)c1 [Compound 49],> 0.1 µM,
C[C@@H]1CN(C2CCN(Cc3ccc(Cl)cc3F)CC2)[C@@H](C)CN1c1ncc(NS(C)(=O)=O)cc1Cl [Compound 50],> 0.1 µM,
CC[C@H]1CN(c2ncc(NS(C)(=O)=O)cc2Cl)CCN1C1CCN(C(=O)c2ccc(Cl)cc2)CC1 [Compound 51],> 0.1 µM,
CC[C@H]1CN(c2ncc(NS(C)(=O)=O)cc2Cl)CCN1C1CCN(Cc2ccc(Cl)cc2NS(C)(=O)=O)CC1 [Compound 52],> 0.1 µM,
C[C@H]1CN(c2ncc(NS(C)(=O)=O)cc2Cl)CCN1C1CCN(Cc2ccc(C#N)cc2)CC1 [Compound 53],> 0.1 µM,
CC[C@H]1CN(c2ncc(NS(C)(=O)=O)cc2Cl)CCN1C1CCN([C@@H](C(=O)NC)c2ccc(Cl)cc2)CC1 [Compound 54],> 0.1 µM,
